# Peptide text beside a SMILES is read from it.
# How the values were obtained:
# [1] = system: FIP200 Claw (FIP200(1450–1594)); experiment: Analytical gel filtration chromatography with FIP200 Claw; assay type: binding, human; conditions: for interaction of CCPG1 FIR2 variant with FIP200 Claw (in words): analytical gel filtration chromatography and fluorescence spectroscopy-based analyses, Supplementary Fig. 10; for interaction of Optineurin fragment with FIP200 (in words): analytical gel filtration chromatography with FIP200(1450–1594), Fig. 3b, c, Supplementary Fig. 15; for effect of point mutation in Optineurin(169–185) S177E on the interaction with FIP200 (in words): analytical gel filtration chromatography, Supplementary Fig. 16
# Method: (§1) Purified proteins were loaded on to a […] 10/300 GL column (GE Healthcare) equilibrated with a buffer containing 20 mM Tris-HCl (pH 7.9), 100 mM NaCl and 1 mM DTT. Analytical gel filtration chromatography was carried out on an AKTA FPLC system (GE Healthcare). The fitting results were further output to the Origin 8.5 software and aligned with each other.
# [2] = system: all six mammalian ATG8 orthologues; experiment: Analytical gel filtration chromatography, statement over all ATG8 orthologues; assay type: binding; conditions: qualitative analytical gel filtration chromatography; Supplementary Figs. 20 and 21
# Method: as §1
# FIP200 Claw = conditions: cited from earlier work
# From the text: Previous studies have well established a critical role of the FIP200 subunit in the ULK complex for associating with other autophagic factors, especially some autophagy receptors such as CCPG1, NDP52, and P62[30],[49]–[51].
# [3] = system: FIP200 Claw Y1564S mutant; experiment: Analytical gel filtration chromatography with FIP200 Y1564S mutant; assay type: binding, human; conditions: Supplementary Fig. 16
# Method: as §1
# [4] = system: FIP200 Claw K1569A mutant; experiment: Analytical gel filtration chromatography with FIP200 K1569A mutant; assay type: binding, human; conditions: Supplementary Fig. 16
# Method: as §1
# [5] = system: FIP200 Claw R1573E mutant; experiment: Analytical gel filtration chromatography with FIP200 R1573E mutant; assay type: binding, human; conditions: Supplementary Fig. 16
# Method: as §1
# [6] = system: FIP200 Claw F1574Q mutant; experiment: Analytical gel filtration chromatography with FIP200 F1574Q mutant; assay type: binding, human; conditions: Supplementary Fig. 16
# Method: as §1
# [7] = system: different ATG8 proteins (LC3A, LC3B, LC3C, GABARAP, GABARAPL1, GABARAPL2); experiment: ITC-based measurements of ATG16L1 FIR with ATG8 proteins; conditions: one-site binding model, peer review file figure
# [8] = target: T1, FIP200 Claw domain (residues 1490–1594) (Homo sapiens, UniProt Q8TDY2); experiment: Fluorescence polarization (FP) binding assay, FITC-peptide titrated with FIP200 Claw; conditions: N-terminally FITC-labeled peptide (~0.25 μM) titrated with FIP200 Claw (residues 1490–1594), 20 mM Tris pH 7.9, 100 mM NaCl, 1 mM DTT, 25 °C, one-site binding model, performed in triplicate, read-out: Kd (fitted dissociation constant with standard error)
# T1 construct: N-terminal Trx-tag/His6-tag or His6-tag/SUMO-tag (vector for this fragment not specified) (N, cleaved yes); made in house; host or cells: E. coli BL21 (DE3)
# T1 sequence (Q8TDY2 1490-1594): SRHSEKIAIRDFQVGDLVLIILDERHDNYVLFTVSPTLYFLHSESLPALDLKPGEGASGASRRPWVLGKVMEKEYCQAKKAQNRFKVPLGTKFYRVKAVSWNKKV
# Method: Fluorescence anisotropy binding assays were performed on the SpectraMax i3x Multi-Mode Detection Platform from Molecular Devices, using a 485 nm excitation filter and a 535 nm emission filter. Peptides were labeled with fluorescein isothiocyanate isomer I (Sigma-Aldrich) at their N-terminals. […] The Kd values were obtained by fitting the titration curves with the classical one-site binding model using GraphPad Prism 6 software.
molecule,measurement,setting,value
CCPG1 FIR2 S104E: recombinant phosphomimetic S104E mutant of CCPG1 FIR2 (residues 99–113) (TASDDEDIVTLEPPK),interaction of CCPG1 FIR2 variant with FIP200 Claw (in words),[1],good abilities to interact
same,interaction with all six mammalian ATG8 orthologues (in words),[2],can directly interact
"phosphomimetic quadruple mutations (S349D, S365D, S366D, and S370D) of P62: P62 with phosphomimetic S349D, S365D, S366D, S370D mutations, from ref 49",enhancement of the binding affinity of P62 for FIP200 Claw by phosphomimetic mutations,FIP200 Claw,roughly by twofold
"Optineurin(169–185) S177E: recombinant phosphomimetic S177E mutant of Optineurin(169–185) that solely includes the LIR motif (NSSGSSEDEFVEIRMAE; UniProt Q96CV9 169-185, looked up, variant S177E)",interaction of Optineurin fragment with FIP200 (in words),[1],can specifically interact
same,interaction with FIP200 Y1564S mutant compared with wild type (in words),[3],significantly attenuate or completely abolish
same,interaction with FIP200 K1569A mutant compared with wild type (in words),[4],significantly attenuate or completely abolish
same,interaction with FIP200 R1573E mutant compared with wild type (in words),[5],significantly attenuate or completely abolish
same,interaction with FIP200 F1574Q mutant compared with wild type (in words),[6],significantly attenuate or completely abolish
I106S: I106S point mutant of CCPG1 FIR2 (TASDDSDSVTLEPPK),interaction of CCPG1 FIR2 variant with FIP200 Claw (in words),[1],significantly decrease or essentially disrupt
"ATG16L1 FIR: ATG16L1 FIR (residues 235-247), FIP200-interacting region of ATG16L1 (EQDDDIEVIVDET; UniProt Q676U5 235-247, looked up, fragment)",binding to different ATG8 proteins (in words),[7],can directly bind
L109A: L109A point mutant of CCPG1 FIR2 (TASDDSDIVTAEPPK),interaction of CCPG1 FIR2 variant with FIP200 Claw (in words),[1],significantly decrease or essentially disrupt
"Optineurin(33–168): recombinant human Optineurin fragment, residues 33–168",interaction of Optineurin fragment with FIP200 (in words),[1],no obvious interactions
T108A: T108A point mutant of CCPG1 FIR2 (TASDDSDIVALEPPK),interaction of CCPG1 FIR2 variant with FIP200 Claw (in words),[1],significantly decrease or essentially disrupt
"Optineurin(186–209): recombinant human Optineurin fragment, residues 186–209",interaction of Optineurin fragment with FIP200 (in words),[1],no obvious interactions
D105A: D105A point mutant of CCPG1 FIR2 (TASDDSAIVTLEPPK),interaction of CCPG1 FIR2 variant with FIP200 Claw (in words),[1],significantly decrease or essentially disrupt
F178Q: F178Q mutation of the phosphomimetic Optineurin(169–185) S177E mutant (NSSGSSEDEQVEIRMAE),effect of point mutation in Optineurin(169–185) S177E on the interaction with FIP200 (in words),[1],significantly attenuate or completely abolish
CC[C@H](C)[C@H](NC(=O)[C@H](CCC(=O)O)NC(=O)[C@@H](NC(=O)[C@H](Cc1ccccc1)NC(=O)[C@H](COP(=O)(O)O)NC(=O)[C@H](CC(=O)O)NC(=O)[C@H](CCC(=O)O)NC(=O)[C@H](CO)NC(=O)[C@@H](N)CO)C(C)C)C(=O)N[C@@H](CCCNC(=N)N)C(=O)N[C@@H](CCSC)C(=O)N[C@@H](C)C(=O)N[C@@H](CCC(=O)O)C(=O)O [p-Optineurin LIR] (HELM PEPTIDE1{S.S.E.D.[O=C([C@H](COP(=O)(O)O)N[*:1])[*:2]].F.V.E.I.R.M.A.E}$$$$V2.0),Kd,[8],11.5 ± 1.74 µM
D176R: D176R mutation of the phosphomimetic Optineurin(169–185) S177E mutant (NSSGSSEREFVEIRMAE),effect of point mutation in Optineurin(169–185) S177E on the interaction with FIP200 (in words),[1],significantly attenuate or completely abolish
p-Optineurin(33–209): Optineurin(33–209) fragment phosphorylated in vitro by TBK1,interaction of Optineurin fragment with FIP200 (in words),[1],much stronger binding ability

# — paper PMC7946963, “Phosphorylation regulates the binding of autophagy receptors to FIP200 Claw domain for selective autophagy initiation” (Nature Communications, 2021)
